Values of other authors as cited in patent US6447754B1, “Oral rinse methods and compositions” (AkPharma Inc., priority 2000, dated 2002).

Conditions: in animals; ingestion

## 1,2,3-propanetriol, mono(dihydrogen phosphate) calcium salt (1:1) [CGP]
  upper limit of CGP which can safely be ingested: greater than 5 grams of CGP per kilogram of body weight
